Here are results for three molecules from publication PMC8491401, “Phytochemical analysis, antioxidant and in vitro β-galactosidase inhibition activities of Juniperus phoenicea and Calicotome villosa methanolic extracts” (BMC Chemistry, 2021).

One may read the IC50 as the concentration at which inhibition is half-maximal. In general, Km refers to the concentration of substrate that gives half-maximal velocity.

Where two headings read alike, the source gives them in different places.

Series [1] concerns the target T1, β-Galactosidase from Aspergillus oryzae (Aspergillus oryzae, UniProt Q2UCU3).
T1 construct: gene lacA; commercial enzyme from Sigma-Aldrich, secreted fungal enzyme; construct details not given
T1 sequence (Q2UCU3 19-1005): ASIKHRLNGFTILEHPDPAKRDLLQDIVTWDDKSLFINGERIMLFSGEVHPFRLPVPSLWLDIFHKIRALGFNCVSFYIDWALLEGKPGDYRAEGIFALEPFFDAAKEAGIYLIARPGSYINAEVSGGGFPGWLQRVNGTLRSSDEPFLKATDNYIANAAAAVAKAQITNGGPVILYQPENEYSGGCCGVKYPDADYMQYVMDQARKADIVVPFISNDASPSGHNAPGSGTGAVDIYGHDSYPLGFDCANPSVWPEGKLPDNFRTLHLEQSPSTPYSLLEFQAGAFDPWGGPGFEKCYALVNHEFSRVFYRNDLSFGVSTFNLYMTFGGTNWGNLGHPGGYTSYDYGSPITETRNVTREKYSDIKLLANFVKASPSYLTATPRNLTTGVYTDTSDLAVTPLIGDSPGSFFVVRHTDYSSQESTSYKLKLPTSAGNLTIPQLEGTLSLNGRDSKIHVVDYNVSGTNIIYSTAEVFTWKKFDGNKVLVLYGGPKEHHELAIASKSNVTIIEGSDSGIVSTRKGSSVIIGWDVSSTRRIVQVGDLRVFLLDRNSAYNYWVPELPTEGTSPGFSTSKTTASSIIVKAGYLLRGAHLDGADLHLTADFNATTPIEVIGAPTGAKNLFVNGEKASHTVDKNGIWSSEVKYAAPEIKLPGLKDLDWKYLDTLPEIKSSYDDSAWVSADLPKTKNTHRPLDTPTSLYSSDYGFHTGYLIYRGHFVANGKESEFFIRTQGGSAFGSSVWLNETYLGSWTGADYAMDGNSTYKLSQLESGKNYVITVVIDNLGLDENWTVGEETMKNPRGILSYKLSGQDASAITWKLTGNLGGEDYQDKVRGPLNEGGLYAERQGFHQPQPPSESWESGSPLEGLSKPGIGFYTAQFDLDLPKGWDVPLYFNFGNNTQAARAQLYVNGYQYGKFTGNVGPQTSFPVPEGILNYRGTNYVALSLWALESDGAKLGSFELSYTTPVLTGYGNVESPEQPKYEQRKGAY
Briefly: ONPG hydrolysis, absorbance at […] nm. The class given is biochemical.

Series [2] has as its target T1, β-Galactosidase from Aspergillus oryzae. As to the kind of experiment: Lineweaver-Burk, ONPG hydrolysis. The class given is biochemical. As to conditions: pH 4.5, 30 °C, mixed, read-out: Ki (mg/ml) (converted). The source says:
Lineweaver-Burk, ONPG hydrolysis on β-Galactosidase from Aspergillus oryzae

Substrate in series [3]: O=[N+]([O-])c1ccccc1O[C@@H]1O[C@H](CO)[C@H](O)[C@H](O)[C@H]1O
Briefly: Lineweaver-Burk, ONPG hydrolysis. The series is classed as biochemical, Aspergillus oryzae. As to conditions: pH 4.5, 30 °C, no inhibitor. From the text: Lineweaver-Burk, ONPG hydrolysis on β-Galactosidase from Aspergillus oryzae | Km and Vmax were obtained by a typical double reciprocal Lineweaver Burk plot

With `OC[C@H]1OC(O)[C@H](O)[C@@H](O)[C@H]1O` (stereo partly shown) [Galactose], half-maximal inhibition in series [1] (ONPG 20 µmol in 4 ml, 0.1 M citrate-phosphate pH 4.5, 30 °C, mixed) (IC50) required 3.33 mM. Also, the Ki in series [2] was 10.4 mM. For the molecule `C[C@@H]1O[C@@H](OC[C@H]2O[C@@H](Oc3c(-c4ccc(O)c(O)c4)oc4cc(O)cc(O)c4c3=O)[C@H](O)[C@@H](O)[C@@H]2O)[C@H](O)[C@H](O)[C@H]1O` [Rutin], it took 0.123 mM to reach half-maximal inhibition in series [1] (IC50).

B1: β-Galactosidase from Aspergillus oryzae (Aspergillus oryzae RIB40) (protein)
chain: T1 sequence (Q2UCU3 19-1005)
notes: commercial enzyme from Sigma-Aldrich, secreted fungal enzyme; construct details not given
On to B1, for which the Km in series [3] came out at 1310 ± 91 µM.
